# Measured values from ChEMBL document CHEMBL5614367, “Hydroxamic acid hybrids: Histone deacetylase inhibitors with anticancer therapeutic potency” (Eur J Med Chem, 2023).
# Legend:
# [1] = biological target: T1, Protein deacetylase HDAC6 (Homo sapiens, UniProt Q9UBN7); experiment: Inhibition of human recombinant HDAC6 using Fluor-de-Lys deacetylase as substrate by Spectrofluorimetry
# T1 sequence (Q9UBN7 whole entry): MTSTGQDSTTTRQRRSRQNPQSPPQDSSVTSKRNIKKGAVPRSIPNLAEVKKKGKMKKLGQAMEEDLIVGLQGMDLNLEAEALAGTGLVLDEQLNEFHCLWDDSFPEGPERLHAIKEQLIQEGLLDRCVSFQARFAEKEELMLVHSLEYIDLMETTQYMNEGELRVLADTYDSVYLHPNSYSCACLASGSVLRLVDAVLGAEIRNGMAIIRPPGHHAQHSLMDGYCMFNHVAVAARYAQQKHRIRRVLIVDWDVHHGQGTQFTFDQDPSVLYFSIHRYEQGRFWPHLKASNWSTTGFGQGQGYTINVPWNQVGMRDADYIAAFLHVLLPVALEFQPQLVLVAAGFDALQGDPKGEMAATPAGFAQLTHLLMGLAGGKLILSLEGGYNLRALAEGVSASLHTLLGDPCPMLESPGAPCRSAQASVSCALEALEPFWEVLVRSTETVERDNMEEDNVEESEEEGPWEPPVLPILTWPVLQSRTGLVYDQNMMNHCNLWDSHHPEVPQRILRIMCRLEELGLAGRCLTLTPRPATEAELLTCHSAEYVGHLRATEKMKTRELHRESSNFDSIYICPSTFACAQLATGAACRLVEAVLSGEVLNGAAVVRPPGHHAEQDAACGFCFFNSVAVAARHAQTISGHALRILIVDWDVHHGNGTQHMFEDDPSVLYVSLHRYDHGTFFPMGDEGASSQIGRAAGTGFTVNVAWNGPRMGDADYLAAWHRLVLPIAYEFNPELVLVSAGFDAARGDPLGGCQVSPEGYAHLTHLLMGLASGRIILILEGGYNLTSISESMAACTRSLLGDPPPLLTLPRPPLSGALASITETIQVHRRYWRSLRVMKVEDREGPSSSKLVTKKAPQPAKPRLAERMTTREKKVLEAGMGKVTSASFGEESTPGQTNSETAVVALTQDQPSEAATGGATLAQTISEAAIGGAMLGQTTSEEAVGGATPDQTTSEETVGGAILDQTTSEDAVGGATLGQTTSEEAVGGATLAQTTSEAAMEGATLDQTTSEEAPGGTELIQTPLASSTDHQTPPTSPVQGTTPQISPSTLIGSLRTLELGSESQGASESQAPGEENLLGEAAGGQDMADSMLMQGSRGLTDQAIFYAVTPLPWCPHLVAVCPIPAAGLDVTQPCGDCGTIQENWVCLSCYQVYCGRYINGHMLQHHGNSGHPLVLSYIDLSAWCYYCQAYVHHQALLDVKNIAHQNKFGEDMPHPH
# HCT-116 [2] = experiment: cells; type: functional, cell-based; conditions: Homo sapiens, HCT-116, 48 h
# A549 [3] = experiment: Antiproliferative activity against human A549 cells assessed as inhibition of cell growth incubated for 48 hrs by SRB assay; type: functional, cell-based; conditions: A549, 48 h
# KYSE-150 cell line = experiment: Antiproliferative activity against human KYSE-150 cells assessed as inhibition of cell growth measured after 72 hrs by CCK-8 assay; type: functional, cell-based; conditions: KYSE-150, 72 h
# PC-3 [4] = experiment: Antiproliferative activity against human PC-3 cells assessed as inhibition of cell growth measured after 72 hrs by SRB assay; type: functional, cell-based; conditions: PC-3, 72 h
# PANC-1 = experiment: Antiproliferative activity against human PANC-1 cells assessed as inhibition of cell growth measured after 72 hrs by MTT assay; type: functional, cell-based; conditions: PANC-1, 72 h
# KYSE-450 [5] = experiment: Antitumor activity against human KYSE-450 cells xenografted in male C57BL/6 nude mouse assessed as reduction in tumor growth at 200 mg/kg, po administered for 5 days followed by 2 off schedule and measured every third day for 31 days relative to control; type: functional; parameters: scale not given: the % may be the effect or the level left; conditions: time 31 day
# CFPAC-1 = experiment: Antiproliferative activity against human CFPAC-1 cells assessed as inhibition of cell growth measured after 72 hrs by MTT assay; type: functional, cell-based; conditions: CFPAC-1, 72 h
# LNCaP = experiment: Antiproliferative activity against human LNCaP cells assessed as inhibition of cell growth measured after 72 hrs by SRB assay; type: functional, cell-based
# A549 [6] = experiment: Antitumor activity against human A549 cells xenografted in assessed as reduction in tumor growth at 50 mg/kg, po administered via oral gavage 5 days on/2 days off dosing and measured on day 10,25 and 31 relative to control; type: functional; parameters: scale not given: the % may be the effect or the level left; conditions: time 31 day
# LAPC4 = experiment: Antiproliferative activity against human LAPC4 cells assessed as inhibition of cell growth measured after 72 hrs by SRB assay; type: functional, cell-based; conditions: LAPC4, 72 h
# ASPC1 = experiment: Antiproliferative activity against human ASPC1 cells assessed as inhibition of cell growth measured after 72 hrs by MTT assay; type: functional, cell-based; conditions: ASPC1, 72 h
# KYSE-450 [7] = experiment: Antiproliferative activity against human KYSE-450 cells assessed as inhibition of cell growth measured after 72 hrs by CCK-8 assay; type: functional, cell-based; conditions: KYSE-450, 72 h
# KYSE-30 = experiment: Antiproliferative activity against human KYSE-30 cells assessed as inhibition of cell growth measured after 72 hrs by CCK-8 assay; type: functional, cell-based; conditions: KYSE-30, 72 h
# MIA PaCa-2 = experiment: Antiproliferative activity against human MIA PaCa-2 cells assessed as inhibition of cell growth measured after 72 hrs by MTT assay; type: functional, cell-based; conditions: MIA PaCa-2, 72 h
# DU-145 = experiment: Antiproliferative activity against human DU-145 cells assessed as inhibition of cell growth measured after 72 hrs by SRB assay; type: functional, cell-based; conditions: DU-145, 72 h
# LNCaP C4-2B = experiment: Antiproliferative activity against human LNCaP C4-2B cells assessed as inhibition of cell growth measured after 72 hrs by SRB assay; type: functional, cell-based
# BXPC-3 [8] = experiment: Antiproliferative activity against human BXPC-3 cells assessed as inhibition of cell growth measured after 72 hrs by MTT assay; type: functional, cell-based; conditions: BXPC-3, 72 h
# BXPC-3 [9] = experiment: Antitumor activity against human BXPC-3 cells xenografted in female BALB/c nude mouse assessed as tumor inhibition rate by measuring T/C ratio at 10 mg/kg, ip administered for 20 days and measured every 1 to 3 days relative to control; type: functional; conditions: time 20 day
# KYSE-510 = experiment: Antiproliferative activity against human KYSE-510 cells assessed as inhibition of cell growth measured after 72 hrs by CCK-8 assay; type: functional, cell-based; conditions: KYSE-510, 72 h
# [10] = Antitumor activity against human Castration-resistant LuCaP 35CR cells xenografted in male CB17 SCID mouse assessed as inhibition of tumor growth at 100 mg/kg, po administered via oral gavage measured after 19 days relative to control; type: functional; conditions: 456 h, time 19 day
# HPAC = experiment: Antiproliferative activity against human HPAC cells assessed as inhibition of cell growth measured after 72 hrs by MTT assay; type: functional, cell-based
# LNCaP C4-2 = experiment: Antiproliferative activity against human C4-2 cells assessed as inhibition of cell growth measured after 72 hrs by SRB assay; type: functional, cell-based; conditions: LNCaP C4-2, 72 h
# CWR22R = experiment: Antiproliferative activity against human 22Rv1 cells assessed as inhibition of cell growth measured after 72 hrs by SRB assay; type: functional, cell-based; conditions: 22Rv1, 72 h
# PC-3 [11] = experiment: Antiproliferative activity against human PC-3 cells incubated for 48 hrs by colorimetric method; type: functional, cell-based; conditions: PC-3, 48 h
# SAOS-2 = experiment: Antiproliferative activity against human SAOS-2 cells; type: functional
# NCI-H23 = experiment: Antiproliferative activity against human NCI-H23 cells incubated for 48 hrs by colorimetric method; type: functional, cell-based; conditions: NCI-H23, 48 h
# SW-620 = experiment: Antiproliferative activity against human SW620 cells incubated for 48 hrs by colorimetric method; type: functional, cell-based; conditions: SW-620, 48 h
# HOS = experiment: Antiproliferative activity against human HOS cells; type: functional
# 143B = experiment: Antiproliferative activity against human 143B cells; type: functional
# Histone deacetylase 1 = Histone deacetylase 1 (Homo sapiens, UniProt Q13547); experiment: Inhibition of HDAC1 (unknown origin) using Ac-peptide as substrate pretreated for 15 mins followed by substrate addition and measured after 60 mins
# MCF7 = experiment: Antiproliferative activity against human MCF7 cells measured after 72 hrs by MTT assay; type: functional, cell-based; conditions: MCF7, 72 h
# HCT-116 [12] = experiment: Antiproliferative activity against human HCT-116 cells measured after 72 hrs by MTT assay; type: functional, cell-based; conditions: HCT-116, 72 h
# A549 [13] = experiment: Antiproliferative activity against human A549 cells measured after 72 hrs by MTT assay; type: functional, cell-based; conditions: A549, 72 h
# Histone deacetylase 1, sequence (Q13547 whole entry): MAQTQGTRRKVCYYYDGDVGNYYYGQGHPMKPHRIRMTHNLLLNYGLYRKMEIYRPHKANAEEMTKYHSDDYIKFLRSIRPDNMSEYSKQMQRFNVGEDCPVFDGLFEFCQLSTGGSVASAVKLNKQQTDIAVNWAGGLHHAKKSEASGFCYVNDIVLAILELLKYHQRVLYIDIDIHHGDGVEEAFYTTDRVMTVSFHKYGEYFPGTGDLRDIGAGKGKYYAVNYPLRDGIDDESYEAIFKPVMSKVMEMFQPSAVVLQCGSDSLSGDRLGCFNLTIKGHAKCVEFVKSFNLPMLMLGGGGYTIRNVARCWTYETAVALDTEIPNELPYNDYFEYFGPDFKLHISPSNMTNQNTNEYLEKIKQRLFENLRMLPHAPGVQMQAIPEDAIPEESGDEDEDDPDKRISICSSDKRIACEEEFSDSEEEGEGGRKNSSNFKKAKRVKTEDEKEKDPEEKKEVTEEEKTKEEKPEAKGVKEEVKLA
compound,measurement,setting,value
O=C(NO)c1ccc(CNc2cccc3cc(-c4ccncc4)cnc23)cc1,IC50,[1],8.16 nM
same,IC50,HCT-116 [2],1290 nM
same,IC50,A549 [3],1290 nM
COc1ccc(-c2nc(N3CCOCC3)c3sc(CN(C)c4ncc(C(=O)NO)cn4)cc3n2)cn1 [FIMEPINOSTAT],IC50,KYSE-150 cell line,2 nM
same,IC50,PC-3 [4],2 nM
same,IC50,PANC-1,2 nM
same,Activity,KYSE-450 [5],~65%
same,IC50,CFPAC-1,2 nM
same,IC50,LNCaP,2 nM
same,Activity,A549 [6],~80%
same,IC50,LAPC4,2 nM
same,IC50,ASPC1,2 nM
same,IC50,KYSE-450 [7],2 nM
same,IC50,KYSE-30,2 nM
same,IC50,MIA PaCa-2,2 nM
same,IC50,DU-145,2 nM
same,IC50,LNCaP C4-2B,2 nM
same,IC50,BXPC-3 [8],2 nM
same,T/C,BXPC-3 [9],52%
same,IC50,KYSE-510,2 nM
same,inhibition in vivo at 100 mg/kg,[10],~60%
same,IC50,HPAC,2 nM
same,IC50,LNCaP C4-2,2 nM
same,IC50,CWR22R,2 nM
O=C(/C=C/c1cccc(S(=O)(=O)Nc2ccccc2)c1)NO [BELINOSTAT],IC50,PC-3 [11],2530 nM
same,GI50,SAOS-2,3300 nM
same,IC50,NCI-H23,2530 nM
same,IC50,SW-620,2530 nM
same,GI50,HOS,3300 nM
same,GI50,143B,3300 nM
COc1cc2c(Oc3ccc(NC(=O)C4CCN(c5ccc(F)cc5)C4=O)cc3)ccnc2cc1OCCCCCCC(=O)NO (centres undefined),IC50,Histone deacetylase 1,27 nM
same,IC50,MCF7,280 nM
same,IC50,HCT-116 [12],280 nM
same,IC50,A549 [13],280 nM
